Assay [1] has as its target T1, APC (Homo sapiens, UniProt P04070).
T1 construct: begins at amino acid residue position 158 and ends at 419; The light chain is 155 amino acid residues in length; tissue Factor IX concentrate from Immuno AG, Vienna; thrombin from Enzyme Research Laboratories
The assay is described as follows: APC anticoagulant activity, APTT and Xa-1-stage coagulation assays (mean or both). To be noted: for IC50: final peptide concentration at which 50% inhibition of APC activity was observed; for inhibition at 500 µM: 500 μM peptide, mean of APTT and Xa-1-stage assays, 0 = no observable effect ± 10%. It is filed as biochemical. How it is done:
The effect of the synthetic peptides on APC anticoagulant activity were determined using the APTT assay in the presence of either normal citrate anticoagulated plasma (NHP) or protein S depleted plasma (PSDP). The assays were performed essentially as described. See Marlar et al., Blood, 59:1067-1072 […]; Suzuki et al., J. Biol. Chem., 258:163-168 (1983); Gruber et al., Blood, 73:639-642 (1989); Ohlin et al., Biochem., 29:644-651 (1990). NHP was purchased from George King Bio-Medical, Inc. (Overland Park, Kans.). PSDP was prepared from a normal human citrate-anticoagulated plasma pool from ten healthy donors. Protein S was immunodepleted from the NHP by immunoaffinity chromatography of NHP over an anti-protein S antibody column to form PSDP. The anti-protein S antibody column was prepared by coupling 100 mg of a monoclonal, high-affinity, calcium-independent anti-PS antibody, designated S7, to 30 ml of CNBr-activated Sepharose 4B (Pharmacia) as described in Example 2c1).
For the APTT assay, APC was prepared as described in Example 2c2). […] The concentration of the APC used in the assay was initially optimized with respect to the sensitivity of the assay towards APC-induced prolongation of clotting time compared to clotting time without APC.
Once the optimal concentration of APC was determined, peptides from Table 2 were then separately admixed for a final concentration of 500 μM with 10 nM APC in 100 μl of TBS-BSA at pH 7.4 to form peptide-APC admixtures. The resulting admixtures were maintained for seven minutes at 37° C. Separate aliquots of peptides maintained under the same conditions in the absence of APC served as controls for the inhibitory effect of synthetic peptides on APC anticoagulant activity. After the maintenance period, 100 μl of NHP and 100 μl APTT-reagent Thrombosil (Ortho Diagnostics, Raritan, N.J.) were admixed into each peptide admixture and maintained for 200 seconds at 37° C. to form a pre-coagulation admixture. In some experiments, PSDP was used in the place of NHP to determine the effect of Protein S on the assay system. Coagulation was then initiated by the admixture of 100 μl of 30 mM CaCl2 in TBS prewarmed to 37° C. to each of the pre-coagulation admixtures. The time for clot formation was measured by an Electra 700 Automatic Coagulation Timer (Medical Laboratory Automation, Inc., Mount Vernon, N.Y.). Each peptide's effect was determined in duplicate.
The synthetic peptides listed in Table 4 are presented in the same order as listed in Table 2, i.e., are reproduced from Table 2. […] For peptides at a concentration of 500 μM that inhibited at least 50% of APC anticoagulant activity, analysis of dose-response was subsequently conducted. The column in Table 4 labeled "Inhibition of APC" represents the inhibition of APC anticoagulant activity measured with 500 μM peptide.
For testing the inhibition of the synthetic peptides on APC activity described above, Xa-1-stage coagulation assays were also performed as described. See Seegers et al., Thrombosis Res., 13:233-243 (1978); Marlar et al., supra; and Walker et al., J. Biol. Chem. 265:1484-1489 (1990).

The target in assay [2] is T1, APC. The assay is described as follows: Amidolytic activity of APC towards chromogenic substrate S-2366. The format is biochemical. To be noted: for effect on APC amidolytic activity towards S-2366: all concentrations up to 500 μM. Here is the method:
The effects of PC-derived inhibitory synthetic peptides on the amidolytic activity of APC were evaluated to determine if the peptides inhibited APC anticoagulant activity by blocking a region in or close to the active site of the enzyme involved in cleavage of a small substrate such as S-2366 (Kabi-Vitrum) or involved in the site of interaction with the recombinant mutant (Arg^358)α1 -antitrypsin (α1 -AT) (Transgene, Strasbourg, France), the latter of which is described in Example 5a4) below. The assay was performed as described by Marlar et al., supra; and Suzuki et al., supra.
The amidolytic activity of APC toward the peptide substrate S-2366 was measured in the presence of various PC synthetic peptides prepared in Example 1. For the assay, 100 μl of 15 nM APC, prepared in Example 2c2), was admixed with separate aliquots of peptide-(390-404) ranging in concentration from 0.0 to 750 μM prepared in TBS-BSA at pH 7.4 containing 0.02% NaN3 and 2 mM CaCl2 to form APC-peptide admixtures, respectively. After maintenance of the admixtures for 30 minutes at 37° C., 50 μl of 2.4 mM S-2366 in the same buffer was admixed to initiate the amidolytic reaction. The hydrolysis of the substrate was monitored by the change in absorbance at 405 nm at 37° C. over time using an EL312 Microplate Bio-Kinetics Reader (BIO-TEK Instruments, Inc. Vt.).
The amidolytic activity of APC toward the peptide substrate S-2366 was measured in the presence of anti-(390-404) antibody. For the assay, 100 μl of 15 nM APC, prepared in Example 2c2), were admixed with separate aliquots of anti-(390-404) antibody ranging in concentration from 0.0 to 500 nM prepared in TBS-BSA at pH 7.4 containing 0.02% NaN3 and 2 mM CaCl2 to form APC-anti-(390-404) antibody immunoreaction admixtures, respectively. After maintenance of the admixtures for 30 minutes at 37° C. to allow formation of immunoreaction products, 50 μl of 2.4 mM S-2366 in the same buffer was admixed to initiate the amidolytic reaction. The hydrolysis of the substrate was monitored by the change in absorbance at 405 nm over time using an EL312 Microplate Bio-Kinetics Reader (BIO-TEK Instruments, Inc. Vt.).

[3] abbreviates: final peptide concentration at which 90% inhibition of APC activity was observed, read-out: IC90.

Where two headings read alike, the source gives them in different places. No end group written: not given here.

T1 sequence (P04070 212-461): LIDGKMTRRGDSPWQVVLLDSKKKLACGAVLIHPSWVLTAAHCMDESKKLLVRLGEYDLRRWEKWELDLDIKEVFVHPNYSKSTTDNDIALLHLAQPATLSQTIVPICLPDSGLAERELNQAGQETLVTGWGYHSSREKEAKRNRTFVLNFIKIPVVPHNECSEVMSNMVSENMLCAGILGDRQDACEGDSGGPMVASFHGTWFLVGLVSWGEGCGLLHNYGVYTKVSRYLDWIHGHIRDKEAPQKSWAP
T1 sequence (P04070 43-197): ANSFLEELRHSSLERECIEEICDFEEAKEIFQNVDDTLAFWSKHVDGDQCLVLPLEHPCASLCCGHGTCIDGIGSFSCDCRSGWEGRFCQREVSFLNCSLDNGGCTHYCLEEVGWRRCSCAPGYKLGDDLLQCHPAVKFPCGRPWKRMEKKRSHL

As a reminder, the IC90 is the point of the concentration-response curve where the effect stands at 90%. The term IC50 denotes the concentration that gives 50% inhibition. Lower therefore signals greater potency in that assay. In assay [1], “KRNRTFVLNFIKIPV-NH2 [peptide-(311-325), KRNRTFVLNFIKIPV]” displayed a concentration for an effect of 90% (IC90) of 50 µM and a half-inhibitory concentration (IC50) of 20 µM. The “APC amidolytic activity towards S-2366, A405 /5 min” value in assay [2] (APC + 250 μM peptide) is 0.342 A405 /5 min. For the same substance, the “effect on APC amidolytic activity towards S-2366” value in assay [2] is “did not significantly alter”.

Broadly, the inhibition is the drop in the measured response relative to a control, in per cent. The low end stands for a weak effect, the high end for a strong effect. Turning to “YGVYTKVSRYLDWIH-NH2 [peptide-(390-404), YGVYTKVSRYLDWIH]”, in assay [1], the inhibition at 500 µM stood at 100% and the IC50 was found to be 5 µM. In assay [1] (setting [3]), the 90% effect concentration (IC90) was found to be 40 µM.

As for “SGLLHNYGVYTKVSR-NH2 [peptide-(384-398), -SGLLHNYGVYTKVSR]”, the inhibition at 500 µM in assay [1] was 60%. Further, in assay [1] (setting [3]), the IC90 is over 500 µM. Further, the “APC amidolytic activity towards S-2366, A405 /5 min” value in assay [2] (APC + 500 μM peptide) is 0.378 A405 /5 min. In assay [2], the “effect on APC amidolytic activity towards S-2366” value was “did not significantly alter”.
